# In patent EP4759812A1 (Guangzhou Lupeng Pharmaceutical Co., Ltd., priority 2023, dated 2025):
# Entries after “also recorded” stand apart in the source; their conditions may differ.
# Assays:
# Format in all cases: physicochemical
# [1] = Influencing factor stability: high-temperature test; conditions: Temperature 60°C; for Purity: HPLC, starting purity: Crystal form VI 99.32%, Amorphous form 98.80%, Crystal form XIII 99.01%; for Crystal form: XRPD
# Method: (§1) The crystal form results under different conditions were identified by XRPD analysis, and the purity results under different conditions were identified by HPLC analysis.
# (§2) The above samples were then taken on days 5, 10, 15, and 30, respectively. Their crystal forms were tested by adopting X-ray powder diffraction (XRPD), and the sample purities were tested by adopting HPLC. […]
# [2] = Morphological comparison under polarizing light microscope
# [3] = Influencing factor stability: light exposure test; conditions: Visible light 4500 Lux ± 500 Lux; for Crystal form: ultraviolet light 1.7 W*h/m^2 (25°C, RH 60%±5%), XRPD; for Purity: HPLC, starting purity: Crystal form VI 99.32%, Amorphous form 98.80%, Crystal form XIII 99.01%
# Method: as §1, §2
# Long-term stability test = conditions: 25±2°C, 60±5 RH %; for Crystal form: XRPD
# [4] = Influencing factor stability: high-humidity test; conditions: Temperature 25°C, relative humidity 92.5±5%; for Purity: HPLC, starting purity: Crystal form VI 99.32%, Amorphous form 98.80%, Crystal form XIII 99.01%; for Crystal form: XRPD
# Method: as §1, §2
# [5] = Dynamic vapor sorption (DVS) experiment; conditions: for Hygroscopicity: class per Chinese Pharmacopoeia 2010 guidance (25±0.2°C, 80% relative humidity)
# [6] = Stability test in pure water and buffer solution (suspension, XRPD); conditions: 25°C, stirred 24 h, solid by XRPD
# Method: The suspensions were stirred at 25°C for 24 h, and filtered to obtain the solids. Samples were taken for XRPD measurement. […]
# [7] = Accelerated stability test; conditions: 40±2°C, 75±5 RH %; for Crystal form: XRPD
compound,measurement,setting,value
"C=CC(=O)Nc1cc(Nc2nc(-c3ccnc(N4CCn5c(cc6c5CC(C)(C)C6)C4=O)c3CO)cn(C)c2=O)ccc1N1CCN(C2CCOCC2)C[C@@H]1C [Crystal form VI, (S)-N-(5-((6-(2-(7,7-dimethyl-1-oxo-1,3,4,6,7,8-hexahydro-2H-cyclopenta[4,5]pyrrolo[1,2-a]pyrazin-2-yl)-3-(hydroxymethyl)pyridin-4-yl)-4-methyl-3-oxo-3,4-dihydropyrazin-2-yl)amino)-2-(2-methyl-4-(tetrahydro-2H-pyran-4-yl)piperazin-1-yl)phenyl)acrylamide]",Purity,[1]; 5 days,99.31%
same,Crystal form,[1]; 5 days,Crystal form VI
same,Purity,[1]; 10 days,99.25%
same,Crystal form,[1]; 10 days,Crystal form VI
same,Purity,[1]; 15 days,98.96%
same,Crystal form,[1]; 15 days,Crystal form VI
same,Purity,[1]; 30 days,98.72%
same,Crystal form,[1]; 30 days,Crystal form VI
same,Crystal form,"[1]; 30 days, listed as crystal form VI",no change in crystal form
same,dispersibility and flowability / agglomeration and caking,[2]; judged from polarizing light microscope images,relatively good dispersibility and flowability
same,crystal morphology,[2]; polarizing light microscope,long rod-shaped
same,Crystal form,[3]; 5 days,Crystal form VI
same,Crystal form,[3]; 10 days,Crystal form VI
same,Crystal form,[3]; 15 days,Crystal form VI
same,Crystal form,[3]; 30 days,Crystal form VI
same,Purity,"[3]; ultraviolet light 1.7 W*h/m^2, 5 days",99.17%
same,Purity,"[3]; ultraviolet light 1.7 W*h/m^2, 10 days",99.23%
same,Purity,"[3]; ultraviolet light 1.7 W*h/m^2, 15 days",98.71%
same,Purity,"[3]; ultraviolet light 1.7 W*h/m^2, 30 days",98.14%
same,Purity,Long-term stability test; 0 days,99.32%
same,Crystal form,Long-term stability test; 0 days,Crystal form VI
same,Purity,Long-term stability test; 1 month,99.31%
same,Crystal form,Long-term stability test; 1 month,Crystal form VI
same,Purity,Long-term stability test; 6 months,99.35%
same,Crystal form,Long-term stability test; 6 months,Crystal form VI
same,Purity,Long-term stability test; 12 months,99.28%
same,Crystal form,Long-term stability test; 12 months,Crystal form VI
same,Purity,Long-term stability test; 18 months,99.31%
same,Crystal form,Long-term stability test; 18 months,Crystal form VI
same,Purity,Long-term stability test; 24 months,99.30%
same,Crystal form,Long-term stability test; 24 months,Crystal form VI
same,Crystal form,"Long-term stability test; 24 months, listed as crystal form VI",no change in crystal form
same,Purity,[4]; 5 days,99.35%
same,Crystal form,[4]; 5 days,Crystal form VI
same,Purity,[4]; 10 days,99.35%
same,Crystal form,[4]; 10 days,Crystal form VI
same,Purity,[4]; 15 days,99.32%
same,Crystal form,[4]; 15 days,Crystal form VI
same,Purity,[4]; 30 days,99.31%
same,Crystal form,[4]; 30 days,Crystal form VI
same,Adsorption weight gain (80% RH),"[5]; DVS, 80% RH",0.79%
same,Adsorption weight gain (95% RH),"[5]; DVS, 95% RH",1.34%
same,Hygroscopicity,[5],Slightly hygroscopic (hygroscopic weight gain is less than 2% but not less than 0.2%)
same,Hygroscopicity,[5]; listed as crystal form VI,slightly hygroscopic; also recorded: slight hygroscopicity
same,Suspension result,[6]; Pure water,Crystal form VI
same,Suspension result,[6]; pH 4.5 buffer solution,Crystal form VI
same,Suspension result,[6]; pH 6.8 buffer solution,Crystal form VI
same,Purity,[7]; 0 days,99.32%
same,Crystal form,[7]; 0 days,Crystal form VI
same,Purity,[7]; 1 month,99.18%
same,Crystal form,[7]; 1 month,Crystal form VI
same,Purity,[7]; 3 months,98.98%
same,Crystal form,[7]; 3 months,Crystal form VI
same,Purity,[7]; 6 months,98.54%
same,Crystal form,[7]; 6 months,Crystal form VI
same,Crystal form,"[7]; 6 months, listed as crystal form VI",no change in crystal form
